Calls of active or inactive are those of the source.
What was measured:
[1] = molecular target: T1, Protein disulfide-isomerase (Homo sapiens, UniProt P07237); test: PDI inhibitors, insulin aggregation turbidity, dose response, biochemical, absorbance, cherry-picked samples (AID 602350); format: functional
[2] = HEK293T cytotoxicity, dose response, cytotoxicity control for miR-122 modulator project, cell-based, activator set, cherry-pick (AID 720690); format: functional;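 note: HEK293T human cells scored for general mammalian cytotoxicity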
Vero = test: Vero cell toxicity, dose response, cytotoxicity control, plate reader, cherry-pick samples (AID 687020); format: functional, cell-based; conditions: Chlorocebus sabaeus
[3] = molecular target: T1, Protein disulfide-isomerase; test: PDI inhibitors, insulin turbidity readout, confirmation, biochemical, dry powder samples, set 2 (AID 652146)
[4] = molecular target: T2, Alkaline phosphatase, tissue-nonspecific isozyme (Homo sapiens, UniProt P05186); test: TNAP enzyme inhibition by screening hits, dose response, selectivity assay for mouse IAP inhibitor project, biochemical, human TNAP, uHTS hits (AID 488906); format: functional
T2 sequence (P05186 whole entry): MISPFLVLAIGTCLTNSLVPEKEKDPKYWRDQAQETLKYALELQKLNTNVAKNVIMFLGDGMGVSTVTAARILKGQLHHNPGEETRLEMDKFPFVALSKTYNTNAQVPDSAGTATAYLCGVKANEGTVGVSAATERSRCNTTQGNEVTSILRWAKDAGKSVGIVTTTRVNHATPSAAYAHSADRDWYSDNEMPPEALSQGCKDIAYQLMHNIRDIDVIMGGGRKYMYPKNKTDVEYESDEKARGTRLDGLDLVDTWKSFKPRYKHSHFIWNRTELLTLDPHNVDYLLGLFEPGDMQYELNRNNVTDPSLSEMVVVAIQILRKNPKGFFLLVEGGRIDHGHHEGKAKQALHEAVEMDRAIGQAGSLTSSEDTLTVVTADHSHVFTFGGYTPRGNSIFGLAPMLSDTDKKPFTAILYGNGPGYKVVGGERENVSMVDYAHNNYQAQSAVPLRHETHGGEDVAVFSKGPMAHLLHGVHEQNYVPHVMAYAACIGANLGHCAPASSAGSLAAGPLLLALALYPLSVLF

[5] = molecular target: Intestinal-type alkaline phosphatase (Mus musculus, UniProt P24822); test: PubChem AID 488785; format: functional
[6] = molecular target: Intestinal-type alkaline phosphatase (Homo sapiens, UniProt P09923); test: inhibition of human intestinal alkaline phosphatase – biochemical, dose response (AID 488876); format: functional
Beta Lactamase [7] = molecular target: T3, Beta Lactamase (Pseudomonas aeruginosa, UniProt Q932Y6); test: VIM-2 metallo-beta-lactamase inhibitor potency, dose response, biochemical, epi-absorbance readout, selective inhibitors (AID 1919)
Beta-lactamase [8] = molecular target: T4, Beta-lactamase (Pseudomonas aeruginosa, UniProt Q79MP6); test: […] counterscreen for selective VIM-2 inhibitors: dose response biochemical high throughput screening assay to identify inhibitors of IMP-1 metallo-beta-lactamase.
Beta Lactamase [9] = molecular target: T3, Beta Lactamase; test: VIM-2 inhibitor FRET-based artefact check, dose response, artefact control for selective VIM-2 inhibitor project, biochemical, FRET readout, CCF2 substrate (AID 1926)
Beta-lactamase [10] = molecular target: T4, Beta-lactamase; test: IMP-1 metallo-beta-lactamase inhibitors, dose response, selectivity assay for VIM-2 inhibitor project, biochemical, epi-absorbance (AID 1920)
Beta-lactamase [11] = molecular target: Beta-lactamase (Salmonella choleraesuis (strain SC-B67), UniProt Q5J463); test: Epi-absorbance-based counterscreen for selective VIM-2 inhibitors: dose response biochemical high throughput screening assay to identify inhibitors of TEM-1 serine-beta-lactamase.
cells [12] = format: functional, cell-based
cells [13] = format: functional, cell-based; remark: listed apart in the source
[14] = A549 cell cytotoxicity, dose response, cytotoxicity control, plate reader, cherry-pick, antagonist series (AID 743412); format: functional, cell-based
[15] = MC4R antagonists, dose response, counter-screen for LGR2 antagonist project, cell-based, plate reader, cherry pick (AID 743444); format: functional;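 note: transfected HEK 293 cells stimulated with alpha-MSH peptide; potency of inhibitors of the alpha-MSH evoked signal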
[16] = HEK293 cell cytotoxicity, dose response, cytotoxicity control, plate reader, cherry-picked samples (AID 743446); format: functional, cell-based
[17] = LGR2 antagonists, dose response, cell-based, HEK293, CRE-luciferase reporter, cherry pick, set 2 (AID 743343); format: functional;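 note: transfected cells were stimulated with diluted bursicon conditioned medium after compound addition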
[18] = intracellular Trypanosoma cruzi inhibitors in host cells – cell-based, plate reader, cherry-pick samples, set 3, dose response (AID 651818); format: functional;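 note: compounds incubated with infected cells for about four days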
[19] = HepG2 cell cytotoxicity, dose response, cytotoxicity control, plate reader, cherry-pick, antagonist series (AID 743416); format: functional, cell-based
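Throughout, for EC50: agonist potency from rise in intracellular calcium fluorescence.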

T1 sequence (P07237 whole entry): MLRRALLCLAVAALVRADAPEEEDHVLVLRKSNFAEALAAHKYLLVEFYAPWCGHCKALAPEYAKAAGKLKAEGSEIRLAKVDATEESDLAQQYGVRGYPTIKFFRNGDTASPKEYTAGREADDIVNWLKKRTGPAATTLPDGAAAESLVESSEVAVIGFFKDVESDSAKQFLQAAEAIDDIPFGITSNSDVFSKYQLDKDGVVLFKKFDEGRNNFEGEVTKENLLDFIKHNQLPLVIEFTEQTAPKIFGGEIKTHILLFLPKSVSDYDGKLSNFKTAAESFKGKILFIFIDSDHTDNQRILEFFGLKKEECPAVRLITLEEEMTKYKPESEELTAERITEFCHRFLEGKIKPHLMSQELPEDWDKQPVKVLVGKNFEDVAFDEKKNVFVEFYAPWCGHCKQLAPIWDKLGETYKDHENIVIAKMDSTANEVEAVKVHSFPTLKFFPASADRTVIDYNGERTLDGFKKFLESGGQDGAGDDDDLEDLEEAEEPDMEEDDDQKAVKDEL
T3 sequence (Q932Y6 whole entry): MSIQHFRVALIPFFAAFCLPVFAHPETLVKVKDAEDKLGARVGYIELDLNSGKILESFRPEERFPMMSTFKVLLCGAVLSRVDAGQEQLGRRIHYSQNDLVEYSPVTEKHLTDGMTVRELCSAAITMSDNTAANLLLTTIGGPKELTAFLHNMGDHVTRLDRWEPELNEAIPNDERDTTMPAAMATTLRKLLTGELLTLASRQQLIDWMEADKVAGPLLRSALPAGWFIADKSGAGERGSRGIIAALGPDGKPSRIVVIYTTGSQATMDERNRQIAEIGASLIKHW
T4 sequence (Q79MP6 whole entry): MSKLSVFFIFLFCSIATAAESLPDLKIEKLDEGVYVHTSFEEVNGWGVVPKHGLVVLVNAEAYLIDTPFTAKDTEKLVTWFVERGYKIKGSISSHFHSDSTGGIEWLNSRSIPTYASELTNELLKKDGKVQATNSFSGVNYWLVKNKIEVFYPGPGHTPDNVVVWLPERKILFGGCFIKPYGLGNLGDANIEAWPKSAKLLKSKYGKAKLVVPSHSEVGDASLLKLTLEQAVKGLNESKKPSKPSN
Sequence of Intestinal-type alkaline phosphatase (Homo sapiens, UniProt P09923) (P09923 whole entry): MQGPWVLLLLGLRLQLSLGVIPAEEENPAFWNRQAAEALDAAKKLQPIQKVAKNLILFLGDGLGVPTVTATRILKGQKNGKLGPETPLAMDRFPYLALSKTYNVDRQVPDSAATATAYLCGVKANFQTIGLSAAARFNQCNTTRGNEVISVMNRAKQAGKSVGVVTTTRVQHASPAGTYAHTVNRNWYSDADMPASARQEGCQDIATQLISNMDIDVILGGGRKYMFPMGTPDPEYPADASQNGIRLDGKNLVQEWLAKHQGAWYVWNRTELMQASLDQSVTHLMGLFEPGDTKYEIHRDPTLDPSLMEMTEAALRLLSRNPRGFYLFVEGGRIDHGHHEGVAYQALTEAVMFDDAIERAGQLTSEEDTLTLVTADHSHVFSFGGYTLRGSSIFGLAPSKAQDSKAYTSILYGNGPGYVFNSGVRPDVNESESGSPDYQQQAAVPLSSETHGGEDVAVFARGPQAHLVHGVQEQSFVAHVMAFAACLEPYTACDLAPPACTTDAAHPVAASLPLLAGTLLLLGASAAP
Sequence of Beta-lactamase (Salmonella choleraesuis (strain SC-B67), UniProt Q5J463) (Q5J463 whole entry): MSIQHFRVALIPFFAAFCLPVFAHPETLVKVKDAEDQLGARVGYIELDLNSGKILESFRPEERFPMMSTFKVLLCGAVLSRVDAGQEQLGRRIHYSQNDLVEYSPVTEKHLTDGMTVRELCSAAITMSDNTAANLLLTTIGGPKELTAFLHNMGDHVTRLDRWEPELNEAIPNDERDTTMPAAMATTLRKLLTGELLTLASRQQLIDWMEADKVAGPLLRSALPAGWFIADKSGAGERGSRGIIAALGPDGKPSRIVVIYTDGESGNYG
Sequence of Intestinal-type alkaline phosphatase (Mus musculus, UniProt P24822) (P24822 whole entry): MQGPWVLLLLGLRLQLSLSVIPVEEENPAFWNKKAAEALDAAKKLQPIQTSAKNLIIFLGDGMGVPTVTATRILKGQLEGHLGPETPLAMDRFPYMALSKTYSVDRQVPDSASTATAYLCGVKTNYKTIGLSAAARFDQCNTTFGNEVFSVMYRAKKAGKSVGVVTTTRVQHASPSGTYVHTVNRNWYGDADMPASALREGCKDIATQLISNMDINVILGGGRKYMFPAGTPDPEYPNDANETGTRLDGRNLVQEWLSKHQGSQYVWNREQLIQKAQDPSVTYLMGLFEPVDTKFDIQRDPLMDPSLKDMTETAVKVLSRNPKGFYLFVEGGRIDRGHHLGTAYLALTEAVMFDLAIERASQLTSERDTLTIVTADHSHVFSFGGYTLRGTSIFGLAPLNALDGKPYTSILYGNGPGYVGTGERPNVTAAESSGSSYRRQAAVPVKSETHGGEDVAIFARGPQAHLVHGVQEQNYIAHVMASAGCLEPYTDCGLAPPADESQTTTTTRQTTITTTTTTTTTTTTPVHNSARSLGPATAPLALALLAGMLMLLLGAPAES

O=C(O)C1C(c2ccccc2)C(C(=O)Oc2ccc(O)cc2)C1c1ccccc1 (configuration not stated)
AC50 [1]: 14.6 µM (active)

O=C(C1CCCCC1)N1C[C@@H]2[C@H](c3ccccc31)[C@H](CO)N2Cc1ccccc1Cl
AC50 [2]: 27.1 µM (active)

CCn1c(=O)n(CC)c2cc(N3CCCC3)c(NC(=O)c3ccc(C)cc3)cc21
AC50 (Vero): 32.2 µM (active)

O=C(N1CCCC1)C1(CCOc2ccccc2)CCN(Cc2ccc(O)c(Cl)c2)CC1
AC50 [3]: > 30 µM (inactive)

O=C(c1c(O)cc(O)cc1O)C1c2c(cc(O)c3c2O[C@H](c2ccc(O)cc2)[C@@H](O)C3)OC1c1ccc(O)cc1 (some centres not stated) [DIHYDRODAPHNODORIN B]
IC50 [4]: 19.7 µM (active) | IC50 [5]: 7.21 µM (active) | IC50 [6]: 18.3 µM (active) | AC50 [1]: 19.5 µM (active)

COc1cc(OC)c(OC)cc1/C=N/NC(=O)CC1C(=O)NN=C1C (configuration not stated)
IC50 (Beta Lactamase [7]): 4.22 µM (active) | IC50 (Beta-lactamase [8]): > 59.6 µM (inactive) | IC50 (Beta Lactamase [9]): 1.46 µM (active) | IC50 (Beta-lactamase [10]): > 59.6 µM (inactive) | IC50 (Beta-lactamase [11]): > 59.6 µM (inactive)

CC(C)Cn1c(O)cc(=O)nc1SCC(=O)N1CCc2ccccc2C1
EC50 (cells [12]): > 29.9 µM (inactive) | IC50 (cells [13]): > 29.9 µM (inactive)

COc1ccc(CN(C)C[C@@H]2Oc3c(NC(=O)Nc4ccc(C(F)(F)F)cc4)cccc3C(=O)N([C@@H](C)CO)C[C@H]2C)cc1
AC50 [14]: 13.6 µM (active) | AC50 [15]: 11 µM (active) | AC50 [16]: 3.5 µM (active) | AC50 [17]: 16.6 µM (active) | AC50 [18]: 2.27 µM (active) | AC50 [19]: 7.95 µM (active)

Cc1cc(F)cc(-c2cc(C(=O)NCC3CCCCC3)[nH]n2)c1
AC50 (Vero): 22.6 µM (active)

Reference: ChEMBL document CHEMBL1201862, “PubChem BioAssay data set” (2004)
